The source of these data is patent US20060281899A1, “Mutants of biotin binding protein” (priority 2002, published 2006).

Broadly, the pKd is the Kd on a negative log10 scale, so that one unit is a factor of ten. As a reminder, the ΔTm is the shift of the melting midpoint relative to a reference.

pKd: −log10 of the molar value. Like-named read-outs stand apart in the source and are kept apart here.

For data set [1] the following is noted: biotin cuvette; values from Hytönen 2003; cited from earlier work.
Data set [2] in a line: IAsys optical biosensor, affinity of avidin and avidin mutants towards 2-iminobiotin. It counts as binding. The procedure:
Reversibility of biotin binding was measured for avidin and the mutants with an IAsys optical biosensor (Laitinen, O. H. et al., FEBS Lett 461 (1999), 52-8). Protein samples were allowed to bind to a biotin-aminosilane cuvette in PBS containing 1 M NaCl. After the equilibrium was reached, biotin-containing buffer was added and the dissociation of the proteins was monitored. The affinities of the proteins towards 2-iminobiotin were determined with an IAsys optical biosensor (Marttila, A. T. et al. FEBS Lett 441 (1998), 313-7). Biotin-binding activity of the mutants Avd-ci and Avd-ccci after heat treatment was studied with a microtiter plate assay. Protein samples, 5 μg/ml concentration in PBS, were heated for various time periods at 99.9° C. and then chilled on ice. The samples were transferred to a Nunc Maxisorp-plate and incubated at 37° C. for 2 h. The wells were washed three times with PBS-Tween (0.05% v/v). After that the wells were blocked with PBS containing 1% BSA at 37° C. for 30 minutes and washed again with PBS-Tween. Next, biotinylated alkaline phosphatase (Sigma) in PBS, 1% BSA was added and incubated at 37° C. for one hour. Once again, the wells were washed with PBS-Tween and the PNPP substrate in DEA buffer (1 mg/ml) was applied to the wells. The absorbances at 405 nm were measured after incubation for 45 minutes.

The conditions of data set [3]: biotin cuvette; avidin values from literature; cited from earlier work.
A short description of data set [4]: Differential scanning calorimetry of avidin and AVR4/5 forms. It counts as physicochemical. As for the experimental part: The thermodynamics of the heat-induced unfolding of the proteins were studied using DSC. The transition midpoint of heat-induced denaturation (Tm) of the avidin and different AVR4/5 forms was studied using a Nano II differential scanning calorimeter (Calorimetric Sciences Corporation, Provo, Utah, USA). The reference cell was filled with buffer whereas the sample cell was filled with proteins dissolved in 50 mM sodium phosphate buffer, pH 7.0 containing 100 mM NaCl. Avidin and AVR4/5(C124S) were also analyzed in 50 mM Na-acetate pH 4.0 containing 100 mM NaCl. Furthermore, AVR4/5 was analyzed in the presence of 2-mercaptoethanol (0.4% v/v). The samples (1.6-9.6 μM) were analyzed both in the absence and presence of a three fold molar excess of biotin/subunit. All samples were degassed before being loaded into the DSC. The thermograms were recorded as a function of temperature; between 25 and 130° C. at a rate of 55.6° C./h (Gonzalez, M., Argarana, C. E. & Fidelio, G. D. (1999) Biomol. Eng. 16, 67-72; Nordlund, H. R., Laitinen, O. H., Uotila, S. T., Nyholm, T., Hytönen, V. P., Slotte, J. P. & Kulomaa, M. S. (2003) J. Biol. Chem. 278, 2479-2483). Data was analyzed using Microcal Origin 6.0 and Cpcalc 2.1 (Applied Thermodynamics, Hunt Valley, Md.). The change in heat capacity upon unfolding (ΔCp) was measured for avidin and AVR4/5(C124S) using DSC data from measurements in pH 4.0 and 7.0. ΔCp was then obtained from the slope of ΔH vs. Tm (Liu, Y. & Sturtevant, J. M. (1996) Biochemistry 35, 3059-3062).

For data set [5] the following is noted: 2-iminobiotin surface, values from Hytönen 2003, cited from earlier work.
The nature of data set [6]: Non-reducing SDS-PAGE thermostability, oligomeric forms after boiling. It counts as physicochemical. As to conditions: boiled 20 minutes. The procedure:
The heat stability of the AVRs was studied by using an SDS-PAGE-based method (Bayer, E. A., Ehrlich-Rogozinski, S. and Wilchek, M. (1996) Electrophoresis 17, 1319-1324). In this method, each protein sample was divided into two fractions one of which was kept biotin-free and the other was supplemented with an excess of biotin. The samples were then mixed with denaturing SDS-PAGE sample buffer (containing β-mercaptoethanol) and incubated at a given temperature for 20 minutes. After heat treatment, the samples were subjected to SDS-PAGE and visualised by staining with Coomassie brilliant blue. The relative proportions of tetrameric and monomeric forms of the AVR proteins (with avidin as the control) were detected. A similar assay, with β-mercaptoethanol omitted from the sample buffer, was performed to examine the presence of intersubunit disulfide-bridges. Sensitivity to proteinase K was studied both in the absence and in the presence of biotin as described (Laitinen, O. H., Airenne, K. J., Marttila, A. T., Kulik, T., Porkka, E., Bayer, E. A., Wilchek, M. and Kulomaa, M. S. (1999) FEBS Lett. 461, 52-8). The isoelectric point of each AVR was determined by isoelectric focusing as previously reported (Marttila, A. T., Airenne, K. J., Laitinen, O. H., Kulik, T., Bayer, E. A., Wilchek, M. and Kulomaa, M. S. (1998) FEBS Lett. 441, 313-317). […]

“wt Avidin: Wild-type chicken avidin (SEQ ID NO 1), purified from chicken egg-white [reference compound]”: the “Reversibility of binding to biotin” value in data set [1] was 4 ± 2%. The figures for the negative-log Kd (pKd) in data set [2], in data set [5] (read-out: Kd detected directly from the binding curves) and in data set [5] (read-out: Kd detected from the equilibrium response data) were 7.60, 7.47 and 7.66, respectively. Besides, the “Reversibility of biotin binding” value in data set [3] is reported as 1 ± 1%. Further, the “Tm at pH 4” value in data set [4] (50 mM Na-acetate pH 4.0, 100 mM NaCl) was found to be 76.6±0.2 °C. Further, the “DSC Tm(−biotin)” value in data set [4] (50 mM sodium phosphate pH 7.0, 100 mM NaCl) was found to be 83.5 ± 0.1 °C. Further, the ΔTm in data set [4] (change in Tm upon addition of a three-fold molar excess of biotin) amounted to 33.5 °C. Also, the ΔH of unfolding in data set [4] (sample without biotin) amounted to 78.6 ± 1.2 kcal/mol. For the same substance, in data set [4] (slope of ΔH vs. Tm, DSC at pH 4.0 and 7.0), the “ΔCp (change in heat capacity upon unfolding)” value was determined as 0.00366 kcal/mol. For the same substance, the “DSC Tm (+biotin)” value in data set [4] (three-fold molar excess of biotin, pH 7.0) came out at 117.0 ± 0.7 °C. Further, in data set [5], the kass entry is on record as “(5.5 ± 0.5) × 10^4 M^−1s^−1”. In addition, the kdiss entry in data set [5] was “(1.9 ± 1.4) × 10^−3 s^−1”. Also, the “Monomeric form, relative proportion” value in data set [6] stood at 100 percentage.
